According to patent US7989449B2, “4,5-dihydro-oxazol-2-yl amine derivatives” (Hoffman-La Roche Inc., priority 2008, dated 2011):
Structures can show the parent of a compound that is named as a salt.

Biological target: T1, 6his-tagged full length BACE 1 from SF9 cells (Homo sapiens, UniProt P56817)
T1 construct: 6his-tagged full length BACE 1 from SF9 cells; made in house; host or cells: Sf9 insect cells
Assay: BACE1 MR121 protease assay
Type: biochemical
Conditions: 30 nM 6his-BACE-1, 300 nM substrate peptide WSEVNLDAEFRC-MR121, Na-acetate pH 4.0, fluorescence
Experimental: Assay plate: 384 well microtiter plate, Corning clear, flat bottom, non binding surface
Assaybuffer: 100 mM Na-acetate pH 4.0, 20 mM EDTA, 0.05% BSA
BACE-1: 6his-tagged full length BACE 1 from SF9 cells
Substrate peptide: WSEVNLDAEFRC-MR121
BACE1 MR121 protease assay
39 μl of a 38 nM 6his-BACE-1 solution in assay buffer (final conc. in the assay: 30 nM) were pipetted into the assay plate. 1 μl of a concentration of a potential inhibitor in dimethylsulfoxide was added to the enzyme and incubated for 10 min. Finally, 10 μl of a 1.5 μM solution of the substrate in assay buffer (final conc. in the assay: 300 nM) was added to start the enzymatic reaction. After strong mixing for 2 min the enzymatic reaction was followed by measuring the fluorescence intensity every two minutes for 15 min on a suitable fluorescence reader. […] The slope was calculated from the linear part of the kinetic as a measure of the activity of BACE-1. A range of concentrations of the potential inhibitor was used to generate data for calculating the concentration of inhibitor resulting in 50% of the effect (e.g. IC50, the concentration of the compound inhibiting the BACE-1 activity by 50%).

T1 sequence (P56817 46-501): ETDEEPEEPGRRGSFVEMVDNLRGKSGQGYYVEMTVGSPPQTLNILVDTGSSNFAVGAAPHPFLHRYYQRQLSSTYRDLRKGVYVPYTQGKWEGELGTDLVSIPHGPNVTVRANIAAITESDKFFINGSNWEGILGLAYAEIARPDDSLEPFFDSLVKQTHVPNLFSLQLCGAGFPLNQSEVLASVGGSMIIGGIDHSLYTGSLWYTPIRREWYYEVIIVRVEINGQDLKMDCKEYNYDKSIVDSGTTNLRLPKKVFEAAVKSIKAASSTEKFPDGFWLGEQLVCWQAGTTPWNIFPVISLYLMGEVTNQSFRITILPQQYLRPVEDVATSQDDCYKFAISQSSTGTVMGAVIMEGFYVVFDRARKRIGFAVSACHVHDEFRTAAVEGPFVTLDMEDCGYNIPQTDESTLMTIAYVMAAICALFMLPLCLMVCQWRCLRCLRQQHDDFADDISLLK

SMILES	IC50 [nM]
Cc1cc(C2(c3ccc(F)c(-c4cccnc4)c3)COC(N)=N2)ccc1OC(F)F (racemic) [Example 119, (RS)-4-(4-Difluoromethoxy-3-methyl-phenyl)-4-(4-fluoro-3-pyridin-3-yl-phenyl)-4,5-dihydro-oxazol-2-ylamine formate]	130
Cc1cc(C2(c3cccc(-c4cncc(Cl)c4)c3)COC(N)=N2)ccc1OC(F)F (racemic) [Example 94, (RS)-4-[3-(5-Chloro-pyridin-3-yl)-phenyl]-4-(4-difluoromethoxy-3-methyl-phenyl)-4,5-dihydro-oxazol-2-ylamine formate]	60
Cc1cc(OC(F)F)ccc1C1(c2cccc(-c3cncnc3)c2)COC(N)=N1 (racemic) [Example 129, (RS)-4-(4-Difluoromethoxy-2-methyl-phenyl)-4-(3-pyrimidin-5-yl-phenyl)-4,5-dihydro-oxazol-2-ylamine formate]	500
COc1ccc(F)c(-c2cccc(C3(c4ccc(OC(F)F)c(C)c4)COC(N)=N3)c2)c1 (racemic) [Example 105, (RS)-4-(4-Difluoromethoxy-3-methyl-phenyl)-4-(2′-fluoro-5′-methoxy-biphenyl-3-yl)-4,5-dihydro-oxazol-2-ylamine formate]	130
COc1cncc(-c2cc(C3(c4ccc(OC)c(Cl)c4)COC(N)=N3)ccc2F)c1 (racemic) [Example 111, (RS)-4-(3-Chloro-4-methoxy-phenyl)-4-[4-fluoro-3-(5-methoxy-pyridin-3-yl)-phenyl]-4,5-dihydro-oxazol-2-ylamine formate]	160
NC1=NC(c2cccc(-c3cncnc3)c2)(c2ccc(OC(F)F)c(Cl)c2)CO1 (racemic) [Example 118, (RS)-4-(3-Chloro-4-difluoromethoxy-phenyl)-4-(3-pyrimidin-5-yl-phenyl)-4,5-dihydro-oxazol-2-ylamine formate]	200
COc1cncc(-c2cccc(C3(c4ccc(OC(F)F)cc4C)COC(N)=N3)c2)c1 (racemic) [Example 146, (RS)-4-(4-Difluoromethoxy-2-methyl-phenyl)-4-[3-(5-methoxy-pyridin-3-yl)-phenyl]-4,5-dihydro-oxazol-2-ylamine formate]	200
COc1ccc(C2(c3ccc(F)c(-c4cncc(F)c4)c3)COC(N)=N2)cc1C (racemic) [Example 52, (RS)-4-[4-Fluoro-3-(5-fluoro-pyridin-3-yl)-phenyl]-4-(4-methoxy-3-methyl-phenyl)-4,5-dihydro-oxazol-2-ylamine formate]	190
COc1cncc(-c2cccc(C3(c4ccc(OC(F)F)c(Cl)c4)COC(N)=N3)c2)c1 (racemic) [Example 117, (RS)-4-(3-Chloro-4-difluoromethoxy-phenyl)-4-[3-(5-methoxy-pyridin-3-yl)-phenyl]-4,5-dihydro-oxazol-2-ylamine formate]	80
CCOCc1cc(Nc2ccccc2)cc(C2(c3ccc(OC)c(C)c3)COC(N)=N2)c1 (racemic) [Example 195, (RS)-4-(3-Ethoxymethyl-5-phenylamino-phenyl)-4-(4-methoxy-3-methyl-phenyl)-4,5-dihydro-oxazol-2-ylamine]	960
CCOCc1cc(Nc2ccccc2)cc(C2(c3ccc(OC(F)F)c(C)c3)COC(N)=N2)c1 (racemic) [Example 193, (RS)-4-(4-Difluoromethoxy-3-methyl-phenyl)-4-(3-ethoxymethyl-5-phenylamino-phenyl)-4,5-dihydro-oxazol-2-ylamine]	80
COc1ccc(C2(c3cccc(-c4cccc(Cl)c4)c3)COC(N)=N2)cc1 (racemic) [Example 39, (RS)-4-(3′-Chloro-biphenyl-3-yl)-4-(4-methoxy-phenyl)-4,5-dihydro-oxazol-2-ylamine formate]	810
COc1ccc(C2(c3ccc(F)c(-c4ccc(F)nc4)c3)COC(N)=N2)cc1C (racemic) [Example 25, (RS)-4-[4-Fluoro-3-(6-fluoro-pyridin-3-yl)-phenyl]-4-(4-methoxy-3-methyl-phenyl)-4,5-dihydro-oxazol-2-ylamine formate]	945
